According to ChEMBL document CHEMBL3217528, “Bicyclic imidazole-4-one derivatives: a new class of antagonists for the orphan G protein-coupled receptors GPR18 and GPR55” (Medchemcomm, 2014):
Active and inactive are the calls of the source. The calls are words filed in the database; no cut-off is given here.

Columns and labels:
Cannabinoid receptor 1 [1] = molecular target: T1, Cannabinoid receptor 1 (Homo sapiens, UniProt P21554); test: Intrinsic activity at human recombinant CB1 receptor expressed in HEK293 cell membranes assessed as stimulation of [35S]GTPgammaS binding at 10 uM by liquid scintillation counting method relative to CP55,940; type: functional
T1 sequence (P21554 whole entry): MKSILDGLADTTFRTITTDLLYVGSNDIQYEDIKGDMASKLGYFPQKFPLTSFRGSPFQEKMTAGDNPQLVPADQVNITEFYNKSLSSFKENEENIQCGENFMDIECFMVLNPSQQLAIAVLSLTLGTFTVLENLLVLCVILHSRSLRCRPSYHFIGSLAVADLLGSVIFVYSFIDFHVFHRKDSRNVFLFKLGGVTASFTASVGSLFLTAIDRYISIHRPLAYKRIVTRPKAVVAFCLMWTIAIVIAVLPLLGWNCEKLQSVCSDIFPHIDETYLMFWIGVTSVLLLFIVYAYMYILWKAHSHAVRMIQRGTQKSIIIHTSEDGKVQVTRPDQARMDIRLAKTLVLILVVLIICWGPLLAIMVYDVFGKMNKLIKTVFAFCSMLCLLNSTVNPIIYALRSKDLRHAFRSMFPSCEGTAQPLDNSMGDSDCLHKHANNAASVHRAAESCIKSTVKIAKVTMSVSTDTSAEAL

[2] = molecular target: Cannabinoid receptor 1 (Rattus norvegicus) (UniProt P20272); test: Intrinsic activity at CB1 receptor in rat brain cortical membranes assessed as stimulation of [35S]GTPgammaS binding at 10 uM by liquid scintillation counting method relative to CP55,940; type: functional, cell membranes
Chain of Cannabinoid receptor 1 (Rattus norvegicus) (P20272 whole entry, the tested form may be a part): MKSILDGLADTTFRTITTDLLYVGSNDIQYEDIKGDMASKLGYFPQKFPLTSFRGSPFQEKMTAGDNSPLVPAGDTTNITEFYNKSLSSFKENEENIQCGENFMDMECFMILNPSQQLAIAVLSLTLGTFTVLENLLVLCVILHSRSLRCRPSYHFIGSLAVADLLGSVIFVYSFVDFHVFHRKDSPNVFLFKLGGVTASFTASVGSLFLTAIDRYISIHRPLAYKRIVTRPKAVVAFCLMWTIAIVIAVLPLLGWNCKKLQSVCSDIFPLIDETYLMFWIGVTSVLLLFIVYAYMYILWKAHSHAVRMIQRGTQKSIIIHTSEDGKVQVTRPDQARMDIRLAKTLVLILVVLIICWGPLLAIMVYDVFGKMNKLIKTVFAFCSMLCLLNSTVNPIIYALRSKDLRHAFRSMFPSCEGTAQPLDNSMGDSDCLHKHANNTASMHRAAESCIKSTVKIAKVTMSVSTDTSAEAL

[3] = molecular target: T2, G-protein coupled receptor 55 (Homo sapiens, UniProt Q9Y2T6); test: Agonist activity at human GPR55 expressed in CHO cells assessed as induction of LPI-induced beta-arrestin recruitment by beta-galactosidase enzyme fragment complementation method relative to LPI; type: cell-based; parameters: concentration or dose not given beside the values
T2 sequence (Q9Y2T6 whole entry, the tested form may be a part): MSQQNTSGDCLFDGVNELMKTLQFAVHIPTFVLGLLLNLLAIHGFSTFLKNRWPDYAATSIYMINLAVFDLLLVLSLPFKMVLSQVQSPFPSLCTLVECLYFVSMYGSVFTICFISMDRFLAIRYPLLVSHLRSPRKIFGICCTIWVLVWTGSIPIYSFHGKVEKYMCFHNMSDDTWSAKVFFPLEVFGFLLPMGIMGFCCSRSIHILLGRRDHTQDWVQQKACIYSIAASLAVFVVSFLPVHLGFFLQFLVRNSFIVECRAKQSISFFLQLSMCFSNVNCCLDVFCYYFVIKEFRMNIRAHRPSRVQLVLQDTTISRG

[4] = molecular target: T3, N-arachidonyl glycine receptor (Homo sapiens) (UniProt Q14330); test: Agonist activity at human GPR18 expressed in CHO cells assessed as induction of beta-arrestin recruitment by beta-galactosidase enzyme fragment complementation method relative to delta9-THC; type: cell-based; parameters: concentration or dose not given beside the values
T3 sequence (whole entry): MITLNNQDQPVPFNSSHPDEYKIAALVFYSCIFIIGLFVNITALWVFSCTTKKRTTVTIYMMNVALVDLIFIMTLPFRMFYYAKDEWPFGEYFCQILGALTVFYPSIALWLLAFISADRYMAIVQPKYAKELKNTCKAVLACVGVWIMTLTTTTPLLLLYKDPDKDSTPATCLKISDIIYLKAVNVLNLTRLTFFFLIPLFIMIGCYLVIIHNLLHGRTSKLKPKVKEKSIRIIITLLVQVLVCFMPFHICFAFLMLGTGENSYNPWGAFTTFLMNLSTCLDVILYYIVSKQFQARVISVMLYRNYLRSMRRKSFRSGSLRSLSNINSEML

[5] = Displacement of [3H]diazepam from GABAA receptor in rat brain cortical membranes; type: cell membranes
Cannabinoid receptor 1 [6] = molecular target: Cannabinoid receptor 1 (Rattus norvegicus, UniProt P20272); test: Displacement of [3H]CP55,940 from CB1 receptor in rat brain cortical membranes; type: cell membranes
Chain of Cannabinoid receptor 1 (Rattus norvegicus, UniProt P20272) (P20272 whole entry): as the sequence (P20272 whole entry, the tested form may be a part) above

Cannabinoid receptor 2 [7] = molecular target: T4, Cannabinoid receptor 2 (Homo sapiens, UniProt P34972); test: Agonist activity at human recombinant CB2 receptor expressed in CHO-K1 cell membranes assessed effect on forskolin-induced cAMP accumulation at 10 uM; type: functional, cell-based
T4 sequence (P34972 whole entry): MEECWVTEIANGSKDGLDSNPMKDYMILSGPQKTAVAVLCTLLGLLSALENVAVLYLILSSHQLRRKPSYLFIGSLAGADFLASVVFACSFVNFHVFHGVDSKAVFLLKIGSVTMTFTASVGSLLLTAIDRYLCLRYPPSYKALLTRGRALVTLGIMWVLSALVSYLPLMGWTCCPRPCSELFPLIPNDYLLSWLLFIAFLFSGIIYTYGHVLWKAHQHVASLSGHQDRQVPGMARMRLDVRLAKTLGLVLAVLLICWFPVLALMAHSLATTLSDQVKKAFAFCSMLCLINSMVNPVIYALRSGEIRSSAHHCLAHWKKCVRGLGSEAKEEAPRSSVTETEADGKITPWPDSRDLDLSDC

Cannabinoid receptor 2 [8] = molecular target: T4, Cannabinoid receptor 2; test: Displacement of [3H]CP55,940 from human recombinant CB2 receptor expressed in HEK293 cells; type: cell-based
Cannabinoid receptor 1 [9] = molecular target: T1, Cannabinoid receptor 1; test: Displacement of [3H]CP55,940 from human recombinant CB1 receptor expressed in CHO-K1 cells; type: cell-based
[10] = molecular target: T2, G-protein coupled receptor 55; test: Antagonist activity against human GPR55 expressed in CHO cells assessed as reduction in LPI-induced beta-arrestin recruitment at 10 uM by beta-galactosidase enzyme fragment complementation method; type: cell-based
[11] = molecular target: T2, G-protein coupled receptor 55; test: Antagonist activity against human GPR55 expressed in CHO cells assessed as reduction in LPI-induced beta-arrestin recruitment by beta-galactosidase enzyme fragment complementation method; type: cell-based
[12] = molecular target: T5, N-arachidonyl glycine receptor (Homo sapiens, UniProt Q14330); test: Antagonist activity against human GPR18 expressed in CHO cells assessed as reduction in delta9-THC-induced beta-arrestin recruitment by beta-galactosidase enzyme fragment complementation method; type: cell-based
T5 sequence (Q14330 whole entry): T3 sequence (whole entry)

Cannabinoid receptor 1 [13] = molecular target: T1, Cannabinoid receptor 1; test: Agonist activity at human recombinant CB1 receptor expressed in CHO-K1 cell membranes assessed effect on forskolin-induced cAMP accumulation at 10 uM; type: functional, cell-based
[14] = molecular target: T3, N-arachidonyl glycine receptor (Homo sapiens); test: Antagonist activity against human GPR18 expressed in CHO cells assessed as reduction in delta9-THC-induced beta-arrestin recruitment at 10 uM by beta-galactosidase enzyme fragment complementation method; type: cell-based
[15] = molecular target: Cannabinoid receptor 1 (Rattus norvegicus) (UniProt P20272); test: Displacement of [3H]CP55,940 from CB1 receptor in rat brain cortical membranes at 10 uM; type: cell membranes
[16] = molecular target: T6, G-protein coupled receptor 35 (Homo sapiens, UniProt Q9HC97); test: Antagonist activity at human GPR35 assessed as reduction of zaprinast-induced beta-arrestin recruitment by beta-galactosidase enzyme fragment complementation method relative to untreated control; parameters: concentration or dose not given beside the values; conditions: concentration not given here
T6 sequence (Q9HC97 whole entry, the tested form may be a part): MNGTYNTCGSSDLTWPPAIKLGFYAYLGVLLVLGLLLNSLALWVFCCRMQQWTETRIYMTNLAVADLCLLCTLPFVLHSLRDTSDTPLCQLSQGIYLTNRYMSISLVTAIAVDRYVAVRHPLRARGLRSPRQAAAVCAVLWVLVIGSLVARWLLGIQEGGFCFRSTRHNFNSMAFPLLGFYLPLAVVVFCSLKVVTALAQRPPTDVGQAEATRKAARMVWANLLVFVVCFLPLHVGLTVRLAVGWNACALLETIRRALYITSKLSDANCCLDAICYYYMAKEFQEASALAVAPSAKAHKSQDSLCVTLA

[17] = molecular target: T6, G-protein coupled receptor 35; test: Antagonist activity at human GPR35 assessed as reduction of zaprinast-induced beta-arrestin recruitment by beta-galactosidase enzyme fragment complementation method
[18] = molecular target: T6, G-protein coupled receptor 35; test: Agonist activity at human GPR35 assessed as induction of beta-arrestin recruitment by beta-galactosidase enzyme fragment complementation method relative to zaprinast; parameters: concentration or dose not given beside the values
[19] = molecular target: T6, G-protein coupled receptor 35; test: Agonist activity at human GPR35 assessed as induction of beta-arrestin recruitment by beta-galactosidase enzyme fragment complementation method
Cannabinoid receptor 1 [20] = molecular target: T1, Cannabinoid receptor 1; test: Displacement of [3H]CP55,940 from human recombinant CB1 receptor expressed in CHO-K1 cells at 10 uM; type: cell-based
Cannabinoid receptor 2 [21] = molecular target: T4, Cannabinoid receptor 2; test: Displacement of [3H]CP55,940 from human recombinant CB2 receptor expressed in HEK293 cells at 10 uM; type: cell-based

| SMILES | Intrinsic activity (Cannabinoid receptor 1 [1]) [%] | Intrinsic activity [2] [%] | Activity [3] [%] | Activity [4] [%] | Ki (Cannabinoid receptor 1 [6]) [µM] | Ki (Cannabinoid receptor 2 [8]) [µM] | Ki (Cannabinoid receptor 1 [9]) [µM] | inhibition [10] [%] | IC50 [11] [µM] | IC50 [12] [µM] | inhibition [14] [%] | inhibition (Cannabinoid receptor 1 [20]) [%] | inhibition (Cannabinoid receptor 2 [21]) [%] | inhibition [15] [%] | also measured |
| --- | --- | --- | --- | --- | --- | --- | --- | --- | --- | --- | --- | --- | --- | --- | --- |
| O=C1N2CCCCSC2=NC1(c1ccccc1)c1ccccc1 | -16 | -15 | 54 | 15 | 3.94 | > 10 | 1.34 | 6 | > 10 | > 10 | 0 |  | 14 |  | Activity (Cannabinoid receptor 1 [13]): inactive |
| O=C1/C(=C/c2ccccc2)N=C2SCCCN12 |  |  | 32 | 7 | > 10 | > 10 | > 10 | 25 | > 10 | > 10 | 5 | 40 | 18 | 1 | inhibition [16]: 12%; IC50 [17]: > 10 µM; Activity [18]: -5%; EC50 [19]: > 10 µM |
| CCOC(=O)C1CN2C(=O)C(c3ccccc3)(c3ccccc3)N=C2S1 (configuration not stated) |  |  | 39 | 11 | > 10 | > 10 | > 10 | 10 | > 10 | > 10 | 0 | 2 | 0 | 38 |  |
| O=C(Oc1cccc(/C=C2\N=C3SCCCN3C2=O)c1)c1ccccc1 |  |  | 49 | 0 | > 10 | ≥ 10 | > 10 | 7 | > 10 | 6.35 |  | 2 | 47 | 13 | Ki [5]: > 10 µM |
| O=C1/C(=C/c2ccc([N+](=O)[O-])cc2)N=C2SCCCN12 |  |  | 39 | 0 | > 10 | > 10 | > 10 | 12 | > 10 | > 10 | 20 | 0 | 20 | 23 |  |
| O=C1N=C2SCCCCN2C1(c1ccccc1)c1ccccc1 | -48 | -19 | 10 | 11 | 21.3 | > 10 | > 10 | 32 | > 10 | > 10 | 0 | 34 | 10 |  |  |
| O=C1/C(=C/c2cccc([N+](=O)[O-])c2)N=C2SCCCN12 |  |  | 21 | 2 | > 10 | > 10 | > 10 | 20 | > 10 | > 10 | 6 | 19 | 10 | 8 |  |

Second part, led by results:

| Intrinsic activity (Cannabinoid receptor 1 [1]) [%] | Intrinsic activity [2] [%] | Activity [3] [%] | Activity [4] [%] | Ki (Cannabinoid receptor 1 [6]) [µM] | Ki (Cannabinoid receptor 2 [8]) [µM] | Ki (Cannabinoid receptor 1 [9]) [µM] | inhibition [10] [%] | IC50 [11] [µM] | IC50 [12] [µM] | inhibition [14] [%] | inhibition (Cannabinoid receptor 1 [20]) [%] | inhibition (Cannabinoid receptor 2 [21]) [%] | SMILES | inhibition [15] [%] | also measured |
| --- | --- | --- | --- | --- | --- | --- | --- | --- | --- | --- | --- | --- | --- | --- | --- |
| -44 | -21 | 16 | 0 | 2.53 | 1.65 | 3.18 | 33 | > 10 | 4.61 |  |  |  | O=C1/C(=C/c2cccc(OCc3ccc(Cl)cc3Cl)c2)N=C2SCCCCN12 |  | Ki [5]: > 10 µM; Activity (Cannabinoid receptor 2 [7]): inactive |
| -16 | -16 | 19 | 0 | 0.73 | 1.56 | 0.85 | 12 | > 10 | > 10 | 5 |  |  | O=C1/C(=C/c2cccc(OCc3ccc(F)cc3)c2)N=C2SCCCCN12 |  | Activity (Cannabinoid receptor 2 [7]): inactive; Activity (Cannabinoid receptor 1 [13]): inactive |
|  |  | 7 | 0 | > 10 | 0.98 | 2.29 | 43 | ≥ 10 | 6.48 |  |  |  | O=C1/C(=C/c2cccc(OCc3ccccc3Cl)c2)N=C2SCCCCN12 | 37 | Activity (Cannabinoid receptor 2 [7]): inactive |
|  |  | 0 | 0 | > 10 | 2.57 | ≥ 10 |  | 9.77 | > 10 | 7 | 42 |  | COc1ccc(/C=C2\N=C3SCCCN3C2=O)c(OC)c1 | 12 | inhibition [16]: 20%; IC50 [17]: > 10 µM; Activity [18]: -7%; EC50 [19]: > 10 µM |
| -31 | -21 | 19 | 14 | 7.68 | > 10 | > 10 | 23 | > 10 | > 10 | 0 | 25 | 5 | O=C1N2CCCSC2=NC1(c1ccccc1)c1ccccc1 |  |  |
| -16 | -7 | 21 | 0 | 8.24 | 4.03 | > 10 | 0 | > 10 | 0.279 |  | 0 |  | O=C1/C(=C/c2cccc(OCc3ccc(Cl)cc3)c2)N=C2SCCCN12 |  | Ki [5]: > 10 µM; inhibition [16]: 3%; IC50 [17]: > 10 µM; Activity [18]: -1%; EC50 [19]: > 10 µM |
| -14 | -12 | 52 | 0 | 2.46 | > 10 | 2.16 | 27 | > 10 | > 10 | 15 |  | 37 | O=C1/C(=C/c2cccc(OCc3cccc(Cl)c3)c2)N=C2SCCCCN12 |  | inhibition [16]: 25%; IC50 [17]: > 10 µM; Activity [18]: -3%; EC50 [19]: > 10 µM |
| -35 | -26 | 4 | 7 | 2.01 | 1.81 | 2.13 | 21 | > 10 | 10 | 49 |  |  | O=C1/C(=C/c2cccc(OCc3ccccc3)c2)N=C2SCCCCN12 |  | Activity (Cannabinoid receptor 2 [7]): inactive |
| -49 | -15 | 13 | 5 | 6.58 | > 10 | > 10 | 33 | > 10 | 10 | 54 | 29 | 9 | O=C1/C(=C/c2cccc(Oc3ccccc3)c2)N=C2SCCCN12 |  |  |
| -37 | -21 | 5 | 1 | 3.63 | > 10 | 1.6 | 33 | > 10 | 14.1 |  |  | 21 | O=C1/C(=C/c2cccc(Oc3ccccc3)c2)N=C2SCCCCN12 |  |  |
| -33 | -9 | 37 | 0 | 4.22 | 1.11 | > 10 | 0 | > 10 | 7.22 |  | 25 |  | O=C1/C(=C/c2cccc(OCc3ccccc3)c2)N=C2SCCCN12 |  | Activity (Cannabinoid receptor 2 [7]): inactive |
